How the values were obtained:
Type in all cases: functional
[1] = tested on: Enterococcus; assay: Antibacterial activity against vancomycin-resistant Enterococcus ATCC 700221 assessed as inhibition of bacterial growth measured after 24 hrs by MH broth based assay
[2] = tested on: Bacillus subtilis; assay: Antibacterial activity against Bacillus subtilis ATCC 6633 assessed as inhibition of bacterial growth measured after 24 hrs by MH broth based assay
[3] = tested on: Staphylococcus aureus; assay: Antibacterial activity against Staphylococcus aureus ATCC 29213 assessed as inhibition of bacterial growth measured after 24 hrs by MH broth based assay
[4] = tested on: Staphylococcus aureus; assay: Antibacterial activity against methicillin-resistant Staphylococcus aureus ATCC 43300 assessed as inhibition of bacterial growth measured after 24 hrs by MH broth based assay
[5] = tested on: Streptococcus pneumoniae; assay: Antibacterial activity against Streptococcus pneumoniae ATCC 49619 assessed as inhibition of bacterial growth measured after 24 hrs by MH broth based assay
[6] = tested on: Staphylococcus epidermidis; assay: Antibacterial activity against methicillin-resistant Staphylococcus epidermidis ATCC 51625 assessed as inhibition of bacterial growth measured after 24 hrs by MH broth based assay
[7] = tested on: Klebsiella pneumoniae; assay: Antibacterial activity against Klebsiella pneumonia CMCC (B) 46117 assessed as inhibition of bacterial growth measured after 24 hrs by MH broth based assay
[8] = tested on: Escherichia coli; assay: Antibacterial activity against Escherichia coli ATCC 25922 assessed as inhibition of bacterial growth measured after 24 hrs by MH broth based assay
[9] = tested on: Proteus; assay: Antibacterial activity against Proteus CMCC (B) 49027 assessed as inhibition of bacterial growth measured after 24 hrs by MH broth based assay
[10] = tested on: Escherichia coli; assay: Antibacterial activity against Escherichia coli MG1655 assessed as inhibition of bacterial growth measured after 24 hrs by MH broth based assay
[11] = tested on: Escherichia coli; assay: Antibacterial activity against Escherichia coli MG1655 harbouring acrB gene assessed as inhibition of bacterial growth measured after 24 hrs by MH broth based assay

C=C[C@]1(C)C[C@@H](OC(=O)CSc2cc[n+](Cc3cccc(NC(=O)OC(C)(C)C)c3)cc2)[C@]2(C)[C@H](C)CC[C@]3(CCC(=O)[C@H]32)[C@@H](C)[C@@H]1O.[I-]
MIC [1]: 16 µg/mL | MIC [2]: 64 µg/mL | MIC [3]: 0.5 µg/mL | MIC [4]: 0.5 µg/mL | MIC [5]: < 0.031 µg/mL | MIC [6]: 0.125 µg/mL | MIC [7]: 64 µg/mL | MIC [8]: 64 µg/mL | MIC [9]: > 64 µg/mL | MIC [10]: 64 µg/mL | MIC [11]: 4 µg/mL

C=C[C@]1(C)C[C@@H](OC(=O)CSc2cc[n+](CCCCC(=O)O)cc2)[C@]2(C)[C@H](C)CC[C@]3(CCC(=O)[C@H]32)[C@@H](C)[C@@H]1O.[I-]
MIC [1]: 64 µg/mL | MIC [2]: > 64 µg/mL | MIC [3]: 8 µg/mL | MIC [4]: 16 µg/mL | MIC [5]: 2 µg/mL | MIC [6]: 4 µg/mL | MIC [7]: > 64 µg/mL | MIC [8]: > 64 µg/mL | MIC [9]: > 64 µg/mL | MIC [10]: 64 µg/mL | MIC [11]: 16 µg/mL

C=C[C@]1(C)C[C@@H](OC(=O)CSc2cc[n+](CC(=O)N3CCS(=O)(=O)CC3)cc2)[C@]2(C)[C@H](C)CC[C@]3(CCC(=O)[C@H]32)[C@@H](C)[C@@H]1O.[I-]
MIC [1]: 64 µg/mL | MIC [2]: > 64 µg/mL | MIC [3]: 8 µg/mL | MIC [4]: 8 µg/mL | MIC [5]: 2 µg/mL | MIC [6]: 4 µg/mL | MIC [7]: > 64 µg/mL | MIC [8]: > 64 µg/mL | MIC [9]: > 64 µg/mL | MIC [10]: 32 µg/mL | MIC [11]: 16 µg/mL

C=C[C@]1(C)C[C@@H](OC(=O)CSc2cc[n+](CC(=O)NCCc3ccc(O)cc3)cc2)[C@]2(C)[C@H](C)CC[C@]3(CCC(=O)[C@H]32)[C@@H](C)[C@@H]1O.[I-]
MIC [1]: 64 µg/mL | MIC [2]: > 64 µg/mL | MIC [3]: 0.5 µg/mL | MIC [4]: 0.5 µg/mL | MIC [5]: 0.25 µg/mL | MIC [6]: 0.25 µg/mL | MIC [7]: 32 µg/mL | MIC [8]: 64 µg/mL | MIC [9]: > 64 µg/mL | MIC [10]: 64 µg/mL | MIC [11]: 1 µg/mL

C=C[C@]1(C)C[C@@H](OC(=O)CSc2cc[n+](Cc3ccc(OC)cc3)cc2)[C@]2(C)[C@H](C)CC[C@]3(CCC(=O)[C@H]32)[C@@H](C)[C@@H]1O.[I-]
MIC [1]: 4 µg/mL | MIC [2]: 16 µg/mL | MIC [3]: 0.063 µg/mL | MIC [4]: 0.125 µg/mL | MIC [5]: < 0.031 µg/mL | MIC [6]: 0.031 µg/mL | MIC [7]: 4 µg/mL | MIC [8]: 64 µg/mL | MIC [9]: > 64 µg/mL | MIC [10]: 64 µg/mL | MIC [11]: 0.5 µg/mL

C=C[C@]1(C)C[C@@H](OC(=O)CSc2cc[n+](CCCCCCCC(=O)O)cc2)[C@]2(C)[C@H](C)CC[C@]3(CCC(=O)[C@H]32)[C@@H](C)[C@@H]1O.[I-]
MIC [1]: 64 µg/mL | MIC [2]: > 64 µg/mL | MIC [3]: 8 µg/mL | MIC [4]: 8 µg/mL | MIC [5]: 2 µg/mL | MIC [6]: 4 µg/mL | MIC [7]: > 64 µg/mL | MIC [8]: > 64 µg/mL | MIC [9]: > 64 µg/mL | MIC [10]: > 64 µg/mL | MIC [11]: 32 µg/mL

C=C[C@]1(C)C[C@@H](OC(=O)CSc2cc[n+](CC(=O)NC3CCCC3)cc2)[C@]2(C)[C@H](C)CC[C@]3(CCC(=O)[C@H]32)[C@@H](C)[C@@H]1O.[I-]
MIC [1]: 64 µg/mL | MIC [2]: > 64 µg/mL | MIC [3]: 4 µg/mL | MIC [4]: 4 µg/mL | MIC [5]: 1 µg/mL | MIC [6]: 1 µg/mL | MIC [7]: 64 µg/mL | MIC [8]: 64 µg/mL | MIC [9]: > 64 µg/mL | MIC [10]: 64 µg/mL | MIC [11]: 8 µg/mL

C=C[C@]1(C)C[C@@H](OC(=O)CSc2cc[n+](CCCCCCC(=O)O)cc2)[C@]2(C)[C@H](C)CC[C@]3(CCC(=O)[C@H]32)[C@@H](C)[C@@H]1O.[I-]
MIC [1]: 64 µg/mL | MIC [2]: 64 µg/mL | MIC [3]: 0.5 µg/mL | MIC [4]: 0.5 µg/mL | MIC [5]: 0.5 µg/mL | MIC [6]: 2 µg/mL | MIC [7]: 64 µg/mL | MIC [8]: 64 µg/mL | MIC [9]: 64 µg/mL | MIC [10]: 64 µg/mL | MIC [11]: 32 µg/mL

C=C[C@]1(C)C[C@@H](OC(=O)CSc2cc[n+](Cc3ccc(C(=O)OC(C)(C)C)cc3)cc2)[C@]2(C)[C@H](C)CC[C@]3(CCC(=O)[C@H]32)[C@@H](C)[C@@H]1O.[I-]
MIC [1]: 64 µg/mL | MIC [2]: 64 µg/mL | MIC [3]: 1 µg/mL | MIC [4]: 1 µg/mL | MIC [5]: 0.25 µg/mL | MIC [6]: 0.5 µg/mL | MIC [7]: 64 µg/mL | MIC [8]: 64 µg/mL | MIC [9]: > 64 µg/mL | MIC [10]: 64 µg/mL | MIC [11]: 4 µg/mL

C#CC[n+]1ccc(SCC(=O)O[C@@H]2C[C@@](C)(C=C)[C@@H](O)[C@H](C)[C@]34CCC(=O)[C@H]3[C@@]2(C)[C@H](C)CC4)cc1.[I-]
MIC [1]: 16 µg/mL | MIC [2]: 32 µg/mL | MIC [3]: 0.125 µg/mL | MIC [4]: 0.125 µg/mL | MIC [5]: < 0.031 µg/mL | MIC [6]: 0.031 µg/mL | MIC [7]: 8 µg/mL | MIC [8]: 64 µg/mL | MIC [9]: > 64 µg/mL | MIC [10]: 64 µg/mL | MIC [11]: 0.5 µg/mL

From ChEMBL document CHEMBL5346923, “Novel pyridinium cationic pleuromutilin analogues overcoming bacterial multidrug resistance” (Eur J Med Chem, 2023)
